Source: patent US7812121B2 (priority 2006, dated 2010)

Tests used:
CD1 mice = test: Mucosal weight gain in small intestine, 10 days daily s.c. dosing; format: in vivo; settings: 2.5 mg/kg (13.3 nmole), p<0.0001
Source text: Afterwards, the mice were euthanized and the small intestines were removed, flushed with saline, and processed as described below.
Specifically, 4 cm sections were harvested: (1) immediately distal to the pylorus (duodenum), (2) starting 2 cm distal of the ligament of Treitz (jejunum), and (3) immediately proximal to the cecum (ileum). The remaining small intestine from ˜6 cm distal of the ligament of Treitz to 4 cm proximal to the cecum was used to prepare mucosal scrapings. From the proximal and distal ends of the remnant, an equal distance was removed until a 15 cm section remained, the remnant was cut longitudinally, rinsed, and the mucosal layer was removed using the short end of a glass microscope slide. The wet weight of the intact intestinal segments and mucosa was measured.

[1] = CD spectra secondary structure; format: physicochemical; settings: 0.2 mg/mL peptide in PBS, 25° C.
Procedure: The secondary structures of tested peptides were determined using 0.2 mg/mL peptide solutions in PBS. Briefly, CD spectra were collected in triplicate at 1 nm intervals at 25° C. in 0.1 cm path length cell. Secondary structures were determined by fitting of the CD spectra using CD spectra software (CD Spectra Deconvolution software 2.1). All tested peptides contained peaks corresponding to the presence of alpha helices.

[2] = SEC-SLS solution molecular weight / self-association; format: physicochemical; settings: PBS (pH 7.5), 1 mg/ml
Procedure: Solution molecular weight of the peptides was measured by SEC-SLS. Briefly, peptide solutions in PBS (pH 7.5) at 0.4 to 2.0 mg/mL were fractionated over a Superdex peptide column (Amersham Pharmacia). The eluted peaks were monitored by static light scattering at 690 nm and solution molecular weight was determined at UV 280 nm using the Astra software package (Wyatt Inc.).

normal mice = test: Upper gastrointestinal transit, carmine dye technique; format: in vivo; settings: 50 μg/mouse daily s.c. for 10 days, 20-minute test period, vs PBS vehicle
Procedure: To test the effects of A2G-GLP-2 on upper gastrointestinal transit in normal mice, mice were randomly assigned to 2 groups (14 animals per test group). Each group received daily subcutaneous injection (total volume […]) of either A2G-GLP-2 peptide (50 μg/mouse) or the phosphate-buffered saline vehicle for 10 consecutive days.
On the day of study, upper gastrointestinal transit was measured using the carmine dye technique. Mice were fed a test meal of 0.25 ml of a 6% (w/v) solution of carmine cochineal powder mixed into 0.5% (w/v) methylcellulose administered intragastrically by an 18 gauge curved feeding tube. Following oral test meal administration, mice were replaced into their home cages. Twenty minutes after marker meal administration, mice were rapidly euthanized by cervical dislocation and the entire gastrointestinal tract was excised starting from the distal colon and working towards the gastric pylorus. […] The linear distance traversed by the carmine dye front through the small intestine was measured together with the total length of the small bowel. Upper gastrointestinal transit was expressed as the percentage of the entire small intestine traversed by the carmine dye front during the 20-minute test period; % small intestine traveled=[distance traversed by dye front through small intestine (cm)/entire small intestine length (cm)×100].

CC[C@H](C)[C@H](NC(=O)[C@H](Cc1ccccc1)NC(=O)[C@H](CC(=O)O)NC(=O)[C@H](CCCNC(=N)N)NC(=O)[C@H](C)NC(=O)[C@H](C)NC(=O)[C@H](CC(C)C)NC(=O)[C@H](CC(N)=O)NC(=O)[C@H](CC(=O)O)NC(=O)[C@H](CC(C)C)NC(=O)[C@@H](NC(=O)[C@@H](NC(=O)[C@H](CC(N)=O)NC(=O)[C@H](CCSC)NC(=O)[C@H](CCC(=O)O)NC(=O)[C@H](CC(=O)O)NC(=O)[C@H](CO)NC(=O)[C@H](Cc1ccccc1)NC(=O)[C@H](CO)NC(=O)CNC(=O)[C@H](CC(=O)O)NC(=O)CNC(=O)[C@@H](N)Cc1c[nH]cn1)[C@@H](C)O)[C@@H](C)CC)C(=O)N[C@@H](CC(N)=O)C(=O)N[C@@H](Cc1c[nH]c2ccccc12)C(=O)N[C@@H](CC(C)C)C(=O)N[C@H](C(=O)N[C@@H](CCC(N)=O)C(=O)N[C@H](C(=O)N[C@@H](CCCCN)C(=O)N[C@H](C(=O)N[C@H](C(=O)N[C@@H](CC(=O)O)C(=O)O)[C@@H](C)O)[C@@H](C)CC)[C@@H](C)O)[C@@H](C)CC [SEQ ID NO: 3, GLP-2(A2G), reference compound]
increase in mucosal wet weight (CD1 mice): statistically significant increase
Helix [1]: 20.7%
Random coil [1]: 37.1%
SEC-SLS elution / association state of peptides [2]: overlapping dimer and monomer peaks
upper gastrointestinal transit (normal mice; listed as A2G-GLP-2): acceleration of upper gastrointestinal transit
upper gastrointestinal transit (normal mice; listed as A2G-GLP-2 peptide): significant acceleration of intestinal transit
